Test results: ChEMBL document CHEMBL1130945, “Rapid optimization of an ICE inhibitor synthesis using multiple reaction conditions in a parallel array” (Bioorg Med Chem Lett, 1998)

Legend:
Caspase-1 [1] = target: T1, Caspase-1 (Homo sapiens, UniProt P29466, D381E); assay: Compound was tested for inhibitory activity against N-His (D381E) Interleukin -1 beta converting enzyme (combinatorially prepared compound)
Caspase-1 [2] = target: T1, Caspase-1; assay: Compound was tested for inhibitory activity against N-His (D381E) Interleukin -1 beta converting enzyme (resynthesized compound)
Caspase-1 [3] = target: T1, Caspase-1; assay: Compound was tested for binding affinity against N-His (D381E) Interleukin -1 beta converting enzyme

T1 sequence (P29466 120-297 limits assumed): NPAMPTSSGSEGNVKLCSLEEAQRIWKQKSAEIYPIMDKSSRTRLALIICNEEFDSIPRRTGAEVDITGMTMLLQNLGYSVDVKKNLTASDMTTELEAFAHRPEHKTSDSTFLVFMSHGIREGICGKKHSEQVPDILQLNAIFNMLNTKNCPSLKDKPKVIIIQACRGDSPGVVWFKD
T1 sequence (P29466 317-404 D381E limits assumed): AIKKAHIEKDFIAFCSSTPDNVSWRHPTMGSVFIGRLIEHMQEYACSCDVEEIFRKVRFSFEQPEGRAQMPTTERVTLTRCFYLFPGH

Row | Compound | IC50 (Caspase-1 [1]) [nM] | IC50 (Caspase-1 [2]) [nM] | Ki (Caspase-1 [3]) [nM]
1 | CC(=O)NC(C(=O)N[C@@H](CC(=O)O)C(=O)COC(=O)Cc1c(Cl)ccc(Cl)c1Cl)C(C)C (stereo partly specified) | 5 | 7 | 113
2 | CC(=O)NC(C(=O)N[C@@H](CC(=O)O)C(=O)COC(=O)Cc1c(Cl)cccc1Cl)C(C)C (stereo partly specified) | 5 | 8 | 82
3 | O=C(O)C[C@H](NC(=O)OCc1ccccc1)C(=O)COC(=O)Cc1c(Cl)cccc1Cl | 742 | – | –
4 | O=C(O)C[C@H](NC(=O)OCc1ccccc1)C(=O)COC(=O)CCc1ccccc1 | 12000 | 35000 | 4500
5 | O=C(O)C[C@H](NC(=O)OCc1ccccc1)C(=O)COC(=O)Cc1c(Cl)ccc(Cl)c1Cl | 936 | – | –
